Legend:
[1] = tested on: ADP-induced platelet aggregation; test: in vitro platelet aggregometry; assay type: cell-based, pig; settings: platelet rich plasma at 37° C, effects monitored after 1 minute
Experimental: Using standard in vitro platelet aggregometry techniques, a dose-response curve was first developed with free ciprostene to determined its inhibitory potency against standard ADP-induced platelet aggregation. […] Concentrations of PLGA nanoparticles ranging from 0.3 to 30 µg/ml (actual ciprostene concentration of 0.06 to 6 µg/ml due to 20% drug loading) were added to platelet rich plasma samples heated to 37° C. The platelet inhibitory effects were monitored after 1 minute. The IC50 for the polymer-incorporated ciprostene was 0.59 µg/ml. Non-drug containing PLGA nanoparticles, as controls, had no obvious effects on the aggregation profile of pig platelets to the agonist ADP.

coronary artery = test: in vivo retention of nanoparticles in porcine coronary artery; parameters: species or system pigs; settings: after local delivery of U86-loaded nanoparticles; about 45 µg nanoparticles per 1 cm LAD
Experimental: In addition to the in vivo studies with rats, the nanoparticles were tested on pigs, weighing between about 30-40 lbs. In each subject pig, the elastic lamina of the coronary artery was ruptured by over inflation of a balloon tip catheter. A nanoparticle suspension (2.5 to 10 mg/ml in normal saline) was infused at the location of the injury by a Wolinksy (28 or 96 hole) or D-3 balloon catheter (Sci-Med, Minneapolis, MN) at 1-3 atmosphere pressure over 1 to 5 minutes. After 2-6 hours, the coronary arteries were harvested and quantitated for drug levels to calculate nanoparticle retention. U86 loaded-PLGA nanoparticles (15% w/w) with 5% DMAB surface modification and a particle size between 100-149 nm were suspended in normal saline at a concentration 15 or 30 mg/ml. The nanoparticles (NP) were administered to pigs which were sacrificed at 30 minutes or after one hour.

Row | IC50 [1] | net U86 in 1 cm of treated artery (coronary artery) | SMILES
1 | roughly 0.28 µg/ml |  | CCCCC[C@H](O)/C=C/[C@H]1[C@H](O)C[C@]2(C)C/C(=C\CCCC(=O)O)C[C@H]12 [free ciprostene, ciprostene]
2 |  | about 7 µg | O=c1cc(N2CCOCC2)oc2c(OCc3cccnc3)cccc12 [Sample U86, U-86983]

Source: patent EP0805678B1, “SURFACE-MODIFIED NANOPARTICLES AND METHOD OF MAKING AND USING SAME” (THE BOARD OF REGENTS acting for and on behalf of THE …, priority 1995, dated 1996)
